Laboratory results published in patent US8951566B2, “Process for preparing products comprising stabilised actives and compositions comprising same” (priority 2011, dated 2015).

Experiment: Blood glucose of a diabetic patient switched from Metformin to sublingual Exenatide tablet
Assay type: in vivo, human
Conditions: one diabetic patient; Exenatide 20 μg sublingual tablet once a day; FIGS. 1 and 2
Protocol: A diabetic patient who was undergoing treatment with Metformin switched to once a day treatment with a slow release 20 μg Exenatide sublingual tablet prepared in accordance with Example 2. The fasting glucose and plasma glucose levels were measured and are depicted in FIGS. 1 and 2.

## CN(C)C(=N)N=C(N)N [Metformin]
  blood glucose level / profile (fasting and 2 hours after a meal): erratic and difficult to control
